Assays:
OVCAR8 = assay: drug sensitivity score (DSS2) on cancer cell count; higher = more sensitive; extreme values may be limits of the assay; conditions: 72 h
In short: (§1)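 Screen quality was checked by Z', and a drug sensitivity score was derived in Breeze from logistic fits of the cancer cell counts. These counts were obtained by imaging at 10× (4 fields) after fixing and immunostaining for CK8/18 with Hoechst. Before that, ovarian cancer cells, alone or in 1:1 direct co-culture with lung or skin fibroblasts, had been treated for 72 h on 384-well plates acoustically pre-spotted with 528 approved and investigational compounds at 5 concentrations.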

KURAMOCHI = assay: as above; conditions: 72 h
In short: as §1

[1] = co-cultured fibroblast: BJHTERT
[2] = co-cultured fibroblast: none (monoculture)

| Structure (SMILES) | drug sensitivity score (OVCAR8; [1]) [DSS] | drug sensitivity score (OVCAR8; co-cultured fibroblast: WI38) [DSS] | drug sensitivity score (OVCAR8; [2]) [DSS] | drug sensitivity score (KURAMOCHI; [1]) [DSS] | drug sensitivity score (KURAMOCHI; co-cultured fibroblast: WI38) [DSS] | drug sensitivity score (KURAMOCHI; [2]) [DSS] |
| --- | --- | --- | --- | --- | --- | --- |
| CCCCOc1nc(N)c2c(n1)N(Cc1cccc(CN3CCCC3)c1)CC(=O)N2 [Vesatolimod] | 0.4 | 0 | 0 | 2.9 | 0 | 0 |
| O=C(NC1CCNCC1)c1n[nH]cc1NC(=O)c1c(Cl)cccc1Cl [AT7519] | 21.6 | 17.5 | 19.9 | 17.3 | 18.8 | 19.6 |
| NC(=O)/C(=C/n1cnc(-c2cc(C(F)(F)F)cc(C(F)(F)F)c2)n1)c1cncnc1 [Eltanexor] | 26.7 | 24.4 | 26.8 | 20 | 20.8 | 26.5 |
| COc1cccc(OCCCN)c1-c1cc(Nc2cnc(C#N)cn2)n[nH]1 [Prexasertib] | 35 | 33.7 | 29.8 | 25.7 | 23.7 | 30.7 |
| Cn1cnc2c(F)c(Nc3ccc(Br)cc3Cl)c(C(=O)NOCCO)cc21 [Selumetinib] | 6.1 | 0 | 7.8 | 15.5 | 6.4 | 20.1 |
| CC(O)c1cc(C(=O)N[C@@H](C)Cn2ccc(-c3ccc(C#N)c(Cl)c3)n2)n[nH]1 (stereo not given in full) [ODM-201] | 0.5 | 0 | 0 | 1.3 | 0 | 3.7 |
| CS(=O)(=O)c1ccc(-c2cnc(N)c(C(=O)Nc3ccccc3)n2)cc1 [VE-821] | 3.1 | 0 | 0 | 0 | 0 | 0 |
| Cn1cc(CNCC2CCN(c3ncc(C(=O)NO)cn3)CC2)c2ccccc21 [Quisinostat] | 22.6 | 15.3 | 22.4 | 15 | 17 | 18.9 |
| CCCCCCCCCCCCCCCCCCOP(=O)([O-])OC1CC[N+](C)(C)CC1 [Perifosine] | 0 | 0 | 0 | 0 | 0 | 0 |
| O=S(=O)(c1cccc2c(O)nccc12)N1CCCNCC1 [Hydroxyfasudil] | 0 | 1.2 | 0 | 0 | 1 | 2 |
| CS(=O)(=O)CCNCc1ccc(-c2ccc3ncnc(Nc4ccc(OCc5cccc(F)c5)c(Cl)c4)c3c2)o1 [Lapatinib] | 0.7 | 0 | 0 | 9.2 | 6.8 | 0 |
| CC1(C)CNc2cc(NC(=O)c3cccnc3NCc3ccncc3)ccc21 [Motesanib] | 0 | 1 | 2 | 0.3 | 0.2 | 0 |
| CNC(=O)c1ccccc1Sc1ccc2c(/C=C/c3ccccn3)n[nH]c2c1 [Axitinib] | 7.4 | 5.6 | 6.7 | 8.7 | 8.4 | 7 |
| NCCNc1ccc(NCCN)c2c1C(=O)c1ccncc1C2=O [Pixantrone] | 1.7 | 0 | 0 | 0 | 0.1 | 9.4 |
| O=C(/C=C\n1cnc(-c2cc(C(F)(F)F)cc(C(F)(F)F)c2)n1)NNc1cnccn1 [Selinexor] | 22.4 | 24.3 | 27.1 | 17.1 | 21.8 | 25.3 |
| CCN(CC)Cc1ccc2cc(COC(=O)Nc3ccc(C(=O)NO)cc3)ccc2c1 [Givinostat] | 14.9 | 8.5 | 8.8 | 8.6 | 7.4 | 6.1 |
| CN(C)CCCOc1ccc(-c2ccc3ncc4c(c3c2)n(C2CCOCC2)c(=O)n4C)cn1 [AZD0156] | 6.4 | 6.8 | 0.5 | 2.5 | 1.4 | 0.7 |
| Cc1sc2c(c1C)C(c1ccc(Cl)cc1)=N[C@@H](CC(=O)Nc1ccc(O)cc1)c1nnc(C)n1-2 [Birabresib] | 19.5 | 8.7 | 15.6 | 10.7 | 13 | 8.2 |
| C[C@@H]1CCN(C(=O)CC#N)C[C@@H]1N(C)c1ncnc2[nH]ccc12 [Tofacitinib] | 0 | 0 | 0 | 0 | 0 | 12.2 |
| CCOC(=O)C1=CCCC[C@H]1S(=O)(=O)Nc1ccc(F)cc1Cl [Resatorvid] | 0 | 0 | 0 | 0 | 0.2 | 0 |
| C[C@]1(O)C[C@@H](c2nc(-c3ccc4ccc(-c5ccccc5)nc4c3)c3c(N)nccn32)C1 [Linsitinib] | 0 | 0 | 1.7 | 0 | 0 | 0 |
| Cn1cc(C[C@@H](N)C(=O)O)c2ccccc21 [1-methyl-D-tryptophan] | 0 | 0 | 0 | 0 | 0 | 10.3 |
| O=C(O)CNC(=O)c1c(O)c2ccccc2n(Cc2ccccc2)c1=O [IOX-2] | 0 | 0 | 0.5 | 0.4 | 0 | 1.3 |
| C#Cc1cccc(Nc2ncnc3cc4c(cc23)OCCOCCOCCO4)c1 [Icotinib] | 0.1 | 0 | 0 | 0 | 0.2 | 9.7 |
| CC(=O)c1cnc2ccc(-c3cc(Cl)c(O)c(Cl)c3)nc2c1N[C@H]1CC[C@H](CN(C)C)CC1 [OTS167] | 20.6 | 16.1 | 19.2 | 14.9 | 13.5 | 11.7 |
| Cc1ccc(=O)n(-c2ccccc2)c1 [Pirfenidone] | 0 | 0.7 | 0 | 1.8 | 0 | 0 |
| CN(C(=O)c1ccc(F)cc1C(F)(F)F)C1CCN(c2nnc(-c3ccnn3C)c3ccccc23)CC1 [Taladegib] | 0 | 0 | 0 | 0 | 0 | 0 |
| C=CCN(/C=C1/C(=O)O[C@H](COC)[C@@]2(C)C1=C(O)C(=O)C1=C2[C@H](OC(C)=O)C[C@]2(C)C(=O)CC[C@@H]12)CC=C [Sonolisib] | 0 | 0 | 0 | 0 | 1.5 | 0 |

| Structure (SMILES) | drug sensitivity score (OVCAR8; [1]) [DSS] | drug sensitivity score (OVCAR8; co-cultured fibroblast: WI38) [DSS] | drug sensitivity score (OVCAR8; [2]) [DSS] | drug sensitivity score (KURAMOCHI; [1]) [DSS] | drug sensitivity score (KURAMOCHI; co-cultured fibroblast: WI38) [DSS] | drug sensitivity score (KURAMOCHI; [2]) [DSS] |
| --- | --- | --- | --- | --- | --- | --- |
| Cc1sc2c(c1C)C(c1ccc(Cl)cc1)=N[C@@H](CC(=O)Nc1ccc(OCCOCCOCCOCCNc3cccc4c3C(=O)N(C3CCC(=O)NC3=O)C4=O)cc1)c1nnc(C)n1-2 (stereo not given in full) [ARV-825] | 19.6 | 14.7 | 18.8 | 6.9 | 7.9 | 4.5 |
| O=C(Nc1c[nH]nc1-c1nc2ccc(CN3CCOCC3)cc2[nH]1)NC1CC1 [AT9283] | 10.7 | 14.2 | 9 | 15.8 | 16 | 19.6 |
| Nc1nc(Cl)nc2c1ncn2[C@@H]1O[C@H](CO)[C@@H](O)[C@@H]1F [Clofarabine] | 30.7 | 28.7 | 27.7 | 13 | 19.7 | 10.7 |
| Cc1ncc(Cl)cc1NCc1ccc(C(=O)N[C@@H](CC2CCCC2)C(=O)NC2CC2)s1 | 0 | 0 | 0 | 0 | 0 | 0 |
| C[C@]12C=CC(=O)C=C1CC[C@@H]1[C@@H]2[C@@H](O)C[C@@]2(C)[C@H]1CC[C@]2(O)C(=O)CO [Prednisolone] | 0.3 | 0 | 0 | 0 | 0 | 0 |
| COc1cc(NS(C)(=O)=O)ccc1Nc1c2ccccc2nc2ccccc12 [Amsacrine] | 20.1 | 19.2 | 23.8 | 14.4 | 18.8 | 21.8 |
| O=C(/C=C/c1cccnc1)NCCCCC1CCN(C(=O)c2ccccc2)CC1 [Daporinad] | 22.5 | 22.2 | 27.1 | 16 | 12.6 | 20.4 |
| O=c1ncn2nc(Sc3ccc(F)cc3F)ccc2c1-c1c(Cl)cccc1Cl [Neflamapimod] | 0 | 0 | 0.3 | 9.1 | 0.7 | 14.9 |
| Cc1cc(Nc2cc(N3CCN(C)CC3)nc(/C=C/c3ccccc3)n2)n[nH]1 [ENMD-2076] | 13.1 | 8.6 | 10.6 | 11.1 | 8.4 | 3.7 |
| COc1cc2/c(=N/c3ccc(Br)cc3F)nc[nH]c2cc1OCC1CCN(C)CC1 [Vandetanib] | 0 | 0 | 2.1 | 0 | 2.6 | 10.6 |
| CN1CCC(CNc2ccc3ncc(-c4cccc(OC(F)(F)F)c4)n3n2)CC1 [SGI-1776] | 8.5 | 4.5 | 5.2 | 7.9 | 6.1 | 7.6 |
| CC#CC(=O)N1CCC[C@H]1c1nc(-c2ccc(C(=O)Nc3ccccn3)cc2)c2c(N)nccn12 [Acalabrutinib] | 0 | 0 | 0 | 0 | 0 | 11 |
| O=C(Nc1cnn2ccc(N3CCC[C@@H]3c3cc(F)ccc3F)nc12)N1CC[C@H](O)C1 [Larotrectinib] | 0.2 | 1.6 | 0 | 0 | 0 | 0 |
| CC(C)(C)c1cnc(CSc2cnc(NC(=O)C3CCNCC3)s2)o1 [SNS-032] | 28.3 | 21 | 24.3 | 21.1 | 18.1 | 25.5 |
| Nc1nc(Cl)nc2c1ncn2[C@H]1C[C@H](O)[C@@H](CO)O1 [Cladribine] | 14.7 | 20.7 | 15.7 | 5.2 | 6.7 | 1.4 |
| O=C(Nc1cccc(NC(=O)c2cccc(O)c2O)c1)c1cccc(O)c1O [MST-312] | 10.9 | 15.4 | 18.1 | 12 | 9.8 | 15.1 |
| CC[C@@H]1C(=O)OC[C@@H]1Cc1cncn1C [Pilocarpine] | 0 | 19.4 | 0 | 0 | 0 | 0 |
| COc1cc2ncnc(Nc3cccc(Cl)c3F)c2cc1OC(=O)N1CCN(C)C[C@H]1C [AZD3759] | 0.8 | 3.6 | 0 | 1.1 | 0 | 0 |
| Cc1nc(-c2cn3c(n2)-c2ccc(-c4cnn(C(C)(C)C(N)=O)c4)cc2OCC3)n(C(C)C)n1 [Taselisib] | 3.1 | 0 | 3.3 | 9.2 | 4.7 | 10.7 |
| Cc1ccc(C(=O)Nc2cccc(C(F)(F)F)c2)cc1Nc1nc(-c2cccnc2)nc2c1cnn2C [NVP-BHG712] | 0 | 6.8 | 7.5 | 5.8 | 6.7 | 8.9 |
| Cc1cc(C)c(CNC(=O)c2cc(-c3ccc(CN4CCOCC4)cc3)cc3c2cnn3C2CCCC2)c(=O)[nH]1 [EPZ-5687] | 0 | 0 | 2.7 | 0 | 0 | 0 |
| Nc1nc(OCc2cc(Br)cs2)c2[nH]cnc2n1 [Lomeguatrib] | 0 | 0.8 | 0 | 0 | 0 | 0 |
| CC1(C)C(C(=O)Nc2ccc(S(=O)(=O)c3ccc(NC(=O)C4C(C)(C)C4(C)C)cc3)cc2)C1(C)C [BRD7116] | 0 | 0 | 0 | 0.5 | 1.9 | 0 |
| C=CCn1c(=O)c2cnc(Nc3ccc(N4CCN(C)CC4)cc3)nc2n1-c1cccc(C(C)(C)O)n1 [AZD1775] | 21 | 14.9 | 18.4 | 15.3 | 12.7 | 13.2 |
| COc1ccc(-c2nc(N3CCOCC3)c3sc(CN(C)c4ncc(C(=O)NO)cn4)cc3n2)cn1 [CUDC-907] | 43.2 | 41.7 | 30 | 34.1 | 28.6 | 29.7 |
| O=C(c1ccc(C(=O)N2CCC(N3CCCC3)CC2)c(Nc2ccccc2)c1)N1CCC(N2CCCC2)CC1 [UNC1215] | 0 | 0 | 0 | 0 | 0 | 0 |
| Clc1ccc(C(c2ccccc2Cl)C(Cl)Cl)cc1 (stereo not given) [Mitotane] | 0 | 0 | 0 | 0 | 0 | 0 |
